One series has as its system DU145. The series is described as follows: Cell viability assay. The class given is cell-based. The conditions noted are these: Homo sapiens, DU-145, DU145 cells, 24 hrs, read-out: Inhibition of cancer cell proliferation IC50. As for the experimental part: (§1) Cells were cultured at a density of 5×10^4 (U937) or 1×10^4 (PC-3, DU145, M12, HT29) cells per well in flat bottomed 96-well plates and treated with various concentrations of test compound at 37° C. (5% CO2). After 24 h, 20 μL of CellTiter 96® Aqueous One Solution Reagent (Promega, Madison, Wis.) was added to each well according to the manufacturer's instructions. After 1 hour, the cell viability was determined by measuring the absorbance at 490 nm using a micro-plate reader.

Another series relates to U937. The series is described as follows: Cell viability assay. It is filed as cell-based. The conditions noted are these: Homo sapiens, U-937, U937 cells, 24 hrs, read-out: Inhibition of cancer cell proliferation IC50. On the procedure: as §1
In the next series the test system is PC-3. The series is described as follows: Cell viability assay. The class given is cell-based. The conditions noted are these: Homo sapiens, PC-3 cells, 24 hrs, read-out: Inhibition of cancer cell proliferation IC50. On the procedure:
as §1

The test system of another series is M12. The series is described as follows: Cell viability assay. It is filed as cell-based. The conditions noted are these: M12 cells, 24 hrs, read-out: Inhibition of cancer cell proliferation IC50. As for the experimental part:
as §1

A short description of a further series: Toxicity studies in mice. The conditions noted are these: B6C3F1 mice, 20 mg/kg orally, 21 days. The class given is in vivo. As for the experimental part:
Female B6C3F1 mice (12/group) were given example 4 orally at 30 mg/kg, 50 mg/kg and 80 mg/kg dosage or example 820 mg/kg orally for 21 days.

The subject of a further series is p-MEK. The series is described as follows: Western blot analysis of p-MEK in U937 cells. The class given is cell-based. The conditions noted are these: PMA/TPA 200 nM stimulation. As for the experimental part: FIG. 1. U937 cells were treated with Formula II prepared as described in Example 4 [i.e. 3-(2-aminoethyl)-5-(3-cyclohexylpropylidene)thiazolidine-2,4-dione] for 1 h, then stimulated with PMA (200 nM) for 30 min. Lysates were analyzed for p-Akt, p-MEK, p-ERK and α-tubulin by western blot analysis.
Cells (5×10^5 per ml) were treated with various concentrations of test compound at 37° C. (5% CO2) for 3 hrs, then stimulated with TPA at a final concentration of 200 nM for 20 min. Samples from whole-cell pellets were prepared and 30 μg protein for each condition was subjected to SDS-PAGE, transferred onto a PVDF membrane, and blocked with 5% fat-free milk for 30 min. The membrane is probed with primary antibodies overnight at 4° C. followed by incubation with horseradish peroxidase-labeled anti-mouse IgG (1:5000, BD Biosciecne). The immunoreactive bands are detected by chemiluminescence methods (Pierce) and visualized on Kodak Omat film. The following primary antibodies were used: phospho-p44/42 MAPK (ERK1/2, Thr202/Tyr204), p44/42 MAPK, phospho-p90RSK (Thr359/Ser363), RSK1/RSK2/RSK3 (Cell Signaling). Blots were reprobed with antibodies against α-tubulin to ensure equal loading and transfer of proteins.

pIC50: −log10 of the molar value.

With `NCCN1C(=O)S/C(=C\CCc2ccccc2)C1=O` [Example 8, 3-(2-aminoethyl)-5-(3-phenylpropylidene)thiazolidine-2,4-dione], the pIC50 is 4.51 with DU145, 4.91 in the series on U937, 4.84 with PC-3 and 4.83 with M12. For the same compound, the “effects on general health and body weight” value in “Toxicity studies in mice” was “no effects on general health and body weight were observed”.
Consider `O=C(NOCC1CC1)c1ccc(F)c(F)c1Nc1ccc(I)cc1Cl` [PD184352, reference compound], for which the “p-MEK level (western blot)” value in the series with p-MEK was “dose-dependent increase in the p-MEK levels”.

Source of the values: patent publication US20110166191A1, “3-(2-amino-ethyl)-5-(3-cyclohexyl-propylidene)-thiazolidine-2,4-dione and its derivatives as multiple signaling pathway inhibitors and for the treatment of cancer” (priority 2010, published 2011).
